Experimental data as given in patent publication US9512141B2, “Pyrazine derivatives as CB2 receptor agonists” (Hoffmann-La Roche Inc., priority 2012, dated 2016).

Assays:
[1] = biological target: human CB2 receptors (Homo sapiens (Human), UniProt P34972); experiment: cAMP assay (functional), CHO cells expressing human CB2 receptors; assay type: cell-based; details: functional cAMP assay, CHO cells expressing human CB2; read-out: human CB2 EC50
Experimental: (§1) CHO cells expressing human CB1 or CB2 receptors are seeded 17-24 hours prior to the experiment 50.000 cells per well in a black 96 well plate with flat clear bottom (Corning Costar #3904) in DMEM (Invitrogen No. 31331), 1×HT supplement, with 10% fetal calf serum and incubated at 5% CO2 and 37° C. in a humidified incubator. The growth medium was exchanged with Krebs Ringer Bicarbonate buffer with 1 mM IBMX and incubated at 30° C. for 30 min. Compounds were added to a final assay volume of 100 μl and incubated for 30 min at 30° C. Using the cAMP-Nano-TRF detection kit the assay (Roche Diagnostics) was stopped by the addition of 50 μl lysis reagent (Tris, NaCl, 1.5% Triton X100, 2.5% NP40, 10% NaN3) and 50 μl detection solutions (20 μM mAb Alexa700-cAMP 1:1, and 48 μM Ruthenium-2-AHA-cAMP) and shaken for 2 h at room temperature. The time-resolved energy transfer is measured by a TRF reader (Evotec Technologies GmbH), equipped with a ND:YAG laser as excitation source. The plate is measured twice with the excitation at 355 nm and at the emission with a delay of 100 ns and a gate of 100 ns, total exposure time 10 s at 730 (bandwidth 30 nm) or 645 nm (bandwidth 75 nm), respectively. The FRET signal is calculated as follows: FRET=T730-Alexa730-P (T645-B645) with P=Ru730-B730/Ru645-B645, where T730 is the test well measured at […], T645 is the test well measured at 645 nm, B730 and B645 are the buffer controls at 730 nm and 645 nm, respectively. cAMP content is determined from the function of a standard curve spanning from 10 μM to 0.13 nM cAMP.
(§2) EC50 values were determined using Activity Base analysis (ID Business Solution, Limited). The EC50 values for a wide range of cannabinoid agonists generated from this assay were in agreement with the values published in the scientific literature.

[2] = biological target: human CB1 receptors (Homo sapiens (Human), UniProt P21554); experiment: cAMP assay (functional), CHO cells expressing human CB1 receptors; assay type: cell-based; details: functional cAMP assay, CHO cells expressing human CB1; read-out: human CB1 EC50
Chain of human CB1 receptors (P21554 whole entry): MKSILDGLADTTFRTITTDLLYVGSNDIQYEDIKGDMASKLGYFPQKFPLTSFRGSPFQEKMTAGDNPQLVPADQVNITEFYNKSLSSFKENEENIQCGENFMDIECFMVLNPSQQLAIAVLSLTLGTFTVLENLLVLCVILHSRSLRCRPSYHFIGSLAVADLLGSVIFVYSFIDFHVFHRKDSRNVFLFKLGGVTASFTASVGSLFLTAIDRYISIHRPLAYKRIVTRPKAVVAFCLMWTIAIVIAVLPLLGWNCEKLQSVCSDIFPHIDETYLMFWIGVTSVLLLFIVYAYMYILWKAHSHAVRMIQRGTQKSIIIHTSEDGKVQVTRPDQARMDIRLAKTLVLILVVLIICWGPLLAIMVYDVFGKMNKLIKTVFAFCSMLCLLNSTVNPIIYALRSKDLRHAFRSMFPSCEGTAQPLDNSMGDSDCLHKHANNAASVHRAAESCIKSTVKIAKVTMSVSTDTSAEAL
Experimental: as §1, §2

Chain of human CB2 receptors (P34972 whole entry): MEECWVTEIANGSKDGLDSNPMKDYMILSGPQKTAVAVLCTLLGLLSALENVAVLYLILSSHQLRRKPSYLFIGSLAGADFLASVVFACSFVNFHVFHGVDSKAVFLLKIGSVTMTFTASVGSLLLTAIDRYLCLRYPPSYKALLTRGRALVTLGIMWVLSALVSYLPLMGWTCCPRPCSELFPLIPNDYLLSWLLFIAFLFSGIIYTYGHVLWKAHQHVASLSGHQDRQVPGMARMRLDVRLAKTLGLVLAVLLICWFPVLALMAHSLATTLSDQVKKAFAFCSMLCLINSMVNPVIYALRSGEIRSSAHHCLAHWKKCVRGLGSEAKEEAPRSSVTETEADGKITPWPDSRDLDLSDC

SMILES | EC50 [1] [nM] | EC50 [2] [nM]
O=C(c1cnc(C2CC2)c(OCC2CC2)n1)N1CC(F)(F)C(F)(F)C1 [Example 26, (5-Cyclopropyl-6-cyclopropylmethoxy-pyrazin-2-yl)-(3,3,4,4-tetrafluoro-pyrrolidin-1-yl)-methanone] | 124 | > 10000
CC(=O)O[C@H]1CCN(C(=O)c2cnc(N3CC(F)(F)C3)c(OCC3CC3)n2)C1 [Example 27, Acetic acid (S)-1-[6-cyclopropylmethoxy-5-(3,3-difluoro-azetidin-1-yl)-pyrazine-2-carbonyl]-pyrrolidin-3-yl ester] | 271 | > 10000
O=C(c1cnc(N2CC(F)(F)C2)c(OCC2CC2)n1)N1CCC2(COC2)C1 [Example 28, [6-Cyclopropylmethoxy-5-(3,3-difluoro-azetidin-1-yl)-pyrazin-2-yl]-(2-oxa-6-aza-spiro[3.4]oct-6-yl)-methanone] | 204 | > 10000
CC(=O)OC1(C)CCN(C(=O)c2cnc(N3CC(F)(F)C3)c(OCC3CC3)n2)C1 (stereo not drawn) [Example 29, Acetic acid 1-[6-cyclopropylmethoxy-5-(3,3-difluoro-azetidin-1-yl)-pyrazine-2-carbonyl]-3-methyl-pyrrolidin-3-yl ester] | 8.8 | > 10000
O=C(c1cnc(N2CC(F)(F)C2)c(OCC2CC2)n1)N1CC(F)(F)C(F)(F)C1 [Example 30, [6-Cyclopropylmethoxy-5-(3,3-difluoro-azetidin-1-yl)-pyrazin-2-yl]-(3,3,4,4-tetrafluoro-pyrrolidin-1-yl)-methanone] | 26.3 | > 10000
CN(C(=O)c1cnc(N2CC(F)(F)C2)c(OCC(F)(F)F)n1)C(C)(C)C [Example 31, 5-(3,3-Difluoro-azetidin-1-yl)-6-(2,2,2-trifluoro-ethoxy)-pyrazine-2-carboxylic acid tert-butyl-methyl-amide] | 130 | > 10000
CC1(C)CCCN1C(=O)c1cnc(N2CC(F)(F)C2)c(OCC(F)(F)F)n1 [Example 32, [5-(3,3-Difluoro-azetidin-1-yl)-6-(2,2,2-trifluoro-ethoxy)-pyrazin-2-yl]-(2,2-dimethyl-pyrrolidin-1-yl)-methanone] | 81.2 | > 10000
NC(=O)C1CCCCN1C(=O)c1cnc(N2CC(F)(F)C2)c(OCC2CC2)n1 (stereo not drawn) [Example 33, 1-[6-Cyclopropylmethoxy-5-(3,3-difluoro-azetidin-1-yl)-pyrazine-2-carbonyl]-piperidine-2-carboxylic acid amide] | 330 | > 10000
CC1(C)CC(C(N)=O)N(C(=O)c2cnc(C3CC3)c(OCC3CC3)n2)C1 (stereo not drawn) [Example 34, 1-(5-Cyclopropyl-6-cyclopropylmethoxy-pyrazine-2-carbonyl)-4,4-dimethyl-pyrrolidine-2-carboxylic acid amide] | 1.6 | > 10000
CC1(C)CC(C(N)=O)N(C(=O)c2cnc(N3CC(F)(F)C3)c(OCC3CC3)n2)C1 (stereo not drawn) [Example 35, 1-[6-Cyclopropylmethoxy-5-(3,3-difluoro-azetidin-1-yl)-pyrazine-2-carbonyl]-4,4-dimethyl-pyrrolidine-2-carboxylic acid amide] | 11.5 | > 10000
CC1(O)C[C@@H](C(N)=O)N(C(=O)c2cnc(N3CC(F)(F)C3)c(OCC3CC3)n2)C1 (stereo partly drawn) [Example 41, (2S)-1-[6-(Cyclopropylmethoxy)-5-(3,3-difluoroazetidin-1-yl)pyrazine-2-carbonyl]-4-hydroxy-4-methylpyrrolidine-2-carboxamide] | 90 | > 10000
NC(=O)[C@@H]1CC(F)(F)CN1C(=O)c1cnc(N2CC(F)(F)C2)c(OCC(F)F)n1 [Example 42, (2S)-1-[5-(3,3-Difluoroazetidin-1-yl)-6-(2,2-difluoroethoxyl)pyrazine-2-carbonyl]-4,4-difluoro-pyrrolidine-2-carboxamide] | 310 | > 10000
